{
  "source": "patent US20260315434A1",
  "about": "“USE OF GUAIACOL SESQUITERPENE LACTONE DERIVATIVES” (NANJING UNIVERSITY OF CHINESE MEDICINE, priority 2023, published 2026)",
  "key": {"[1]": {"experiment": "Conversion (release) of prodrug salts to parent compound in mouse plasma", "format": "in vitro ADME", "settings": "mouse, plasma, 37 °C, read-out: Release rate (conversion to Compound 82)", "outline": "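Salts (0.6 mg in 250 μL water) were mixed 1:1 with heparinized mouse plasma or HEPES pH 7.4 and incubated at 37 °C. Samples were methanol-quenched and taken at 1–12 h. Parent compound was quantified by C18 HPLC-UV at 210 nm using peak areas.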"}, "[2]": {"test_system": "renal injury markers (Ngal, Havcr1) in kidney tissue", "experiment": "Folic acid-induced acute kidney injury, renal injury marker mRNA", "format": "in vivo, C57BL/6 mice", "design": "scale not given here", "settings": "folic acid acute model", "description": "(§1) Except for the normal group, all other mice were administered folic acid (250 mg/kg) dissolved in 0.9% NaHCO3 solution via intraperitoneal injection to establish an acute kidney injury model.\n(§2) The blood was allowed to stand at room temperature for 2 hours, then centrifuged at 3000 rpm for 20 minutes. Serum was aspirated, aliquoted, and stored at −70° C. for future use. Following blood collection, euthanize mice by cervical dislocation. Perform laparotomy to remove kidneys, dissect out perirenal fat and capsules. […] Paraffin-embedded specimens undergo HE staining; remaining tissue is stored at −70° C. for future use."}, "[3]": {"test_system": "inflammatory cytokines (TNF, IL-6, IL-1) in renal tissue", "experiment": "Folic acid-induced acute kidney injury, renal inflammatory factor mRNA", "format": "in vivo, C57BL/6 mice", "settings": "folic acid acute model", "description": "as §1, §2"}, "[4]": {"test_system": "fibrosis-related factors (α-Sma, Col1a1, Tgfb1) in kidney tissue", "experiment": "Folic acid-induced kidney injury, renal fibrosis-related factor mRNA", "format": "in vivo, C57BL/6 mice", "settings": "folic acid model", "description": "as §1, §2"}, "[5]": {"test_system": "renal injury markers (Ngal, Havcr1) in kidney tissue", "experiment": "Unilateral ureteral ligation (UUO) chronic kidney injury, renal injury marker mRNA", "format": "in vivo, C57BL/6 mice", "design": "unit not given here", "settings": "UUO chronic model", "excerpt": "(§3) Chronic Kidney Injury: Mice were randomly divided into five groups. […] Except for the sham-operated mice in the normal group (where only the left ureter was exposed without further manipulation), all other mice underwent unilateral ureteral ligation to establish a chronic kidney injury model as follows: The abdominal skin was disinfected with iodine solution followed by alcohol. An incision was made, and the abdominal layers were dissected sequentially. The left ureter was fully exposed and dissected. A double ligation was performed at the bladder-proximal end of the left ureter using absorbable suture material, followed by closure.\nas §2"}, "[6]": {"test_system": "inflammatory cytokines (TNF, IL-6, IL-1) in renal tissue", "experiment": "UUO chronic kidney injury, renal inflammatory factor mRNA", "format": "in vivo, C57BL/6 mice", "design": "unit not given here", "settings": "UUO chronic model", "excerpt": "as §3, §2"}, "[7]": {"test_system": "fibrosis-related factors (α-Sma, Col1a1, Tgfb1) in kidney tissue", "experiment": "UUO chronic kidney injury, renal fibrosis-related factor mRNA", "format": "in vivo, C57BL/6 mice", "design": "unit not given here", "settings": "UUO chronic model", "excerpt": "as §3, §2"}, "Hepa1-6 cells": {"test_system": "Hepa1-6 cells", "experiment": "Antitumor effect in Hepa1-6 mouse hepatocellular carcinoma subcutaneous xenograft model", "format": "in vivo, C57BL/6 mice", "settings": "40 μmol/kg/d oral, 2 weeks"}, "MDSCs": {"test_system": "MDSCs", "experiment": "Proportion of MDSCs in tumor and spleen of H22 xenograft mice (flow cytometry)", "format": "in vivo, BALB/c mice", "description": "Once all tumors were dissected, nail-sized tumor pieces were transferred to 1.5 mL Eppendorf tubes and minced with scissors. Transfer the minced tumor tissue suspension to a 15 mL centrifuge tube containing 3-5 mL of digestive enzymes (Collagenase IV 1 mg/mL, Hyaluronidase 1 mg/mL, DNase 120 U/mL). Incubate at 200 rpm and 37° C. for 1 hour. After digestion, pass the mixture through a 200-mesh sieve to obtain the tumor cell suspension. Centrifuge the resulting tumor suspension at 1600 rpm for 5 min, aspirate the supernatant, resuspend cells in 1 mL of 1×PBS per tube. Transfer the cell suspension to a 1.5 mL Eppendorf tube, centrifuge at 1600 rpm for 5 min, remove the supernatant, resuspend cells in 100 μL of 1×PBS per tube, add 1 μL of dead/live dye to each tube, mix thoroughly, and incubate at room temperature in the dark for 15 min. […] Position the spleen on a 200-mesh cell strainer. Gently press the spleen using a 10 mL syringe needle. […] Transfer the washed splenocyte suspension into a 15 mL centrifuge tube. Centrifuge at 1600 rpm for 5 min to collect cells. Wash once with 1×PBS. Add 3 mL red blood cell lysis buffer (diluted with ddH2O) to each tube and incubate for 5 min. After lysis, add 10 mL 1×PBS to each tube to terminate lysis. Centrifuge at 1600 rpm for 5 min. Add 1 mL 1×PBS to each 15 mL centrifuge tube, transfer to 1.5 mL EP tubes, and centrifuge at 1600 rpm for 5 min. Add 1 mL 1×PBS to each tube containing stained tumor cells and lysed spleen cells for one wash, centrifuge at 1600 rpm for 5 min, and remove the supernatant. Resuspend tumor cells and spleen cells separately in 100 μL 1×PBS. Add 1 μL FcX™ antibody to each tube and incubate at room temperature in the dark for 10 min. After incubation, sequentially add 1 μL each of CD45, CD11b, Gr1 antibodies. Incubate at 4° C. in the dark for 30 min. After incubation, wash once with 1×PBS, discard the supernatant, resuspend cells in 300 μL 1×PBS, filter the membrane into a flow cytometry tube, and proceed to instrument analysis."}},
  "data": [
    {"smiles": "CC1=C2CC[C@@](C)(OC(=O)N3CCCC3)[C@@H]2[C@H]2OC(=O)[C@@H](CN3CCCC3)[C@@H]2CC1", "note": "[Compound 103]", "values": [
      {"measurement": "metabolised at 1 h", "setting": "[1]; 1 h", "value": 7.2, "unit": "%"},
      {"measurement": "metabolised at 2 h", "setting": "[1]; 2 h", "value": 13.2, "unit": "%"},
      {"measurement": "metabolised at 4 h", "setting": "[1]; 4 h", "value": 26.8, "unit": "%"},
      {"measurement": "metabolised at 8 h", "setting": "[1]; 8 h", "value": 44.5, "unit": "%"},
      {"measurement": "metabolised at 12 h", "setting": "[1]; 12 h", "value": 53.4, "unit": "%"},
      {"measurement": "Havcr1 mRNA expression, kidney", "setting": "[2]; 0.1 mg/kg oral", "value": "452.14 ± 212.69"},
      {"measurement": "Ngal mRNA expression, kidney", "setting": "[2]; 0.1 mg/kg oral", "value": "148.49 ± 116.61"},
      {"measurement": "Havcr1 mRNA expression, kidney", "setting": "[2]; 1 mg/kg oral", "value": "415.10 ± 120.96"},
      {"measurement": "Ngal mRNA expression, kidney", "setting": "[2]; 1 mg/kg oral", "value": "85.57 ± 27.78"},
      {"measurement": "Havcr1 mRNA expression, kidney", "setting": "[2]; 10 mg/kg oral", "value": "331.69 ± 98.67"},
      {"measurement": "Ngal mRNA expression, kidney", "setting": "[2]; 10 mg/kg oral", "value": "69.68 ± 25.32"},
      {"measurement": "Il1 mRNA expression, kidney", "setting": "[3]; 0.1 mg/kg oral", "value": "2.83 ± 1.00"},
      {"measurement": "Il6 mRNA expression, kidney", "setting": "[3]; 0.1 mg/kg oral", "value": "27.33 ± 11.81"},
      {"measurement": "Il1 mRNA expression, kidney", "setting": "[3]; 1 mg/kg oral", "value": "2.79 ± 1.31"},
      {"measurement": "Il6 mRNA expression, kidney", "setting": "[3]; 1 mg/kg oral", "value": "23.47 ± 6.54"},
      {"measurement": "Il1 mRNA expression, kidney", "setting": "[3]; 10 mg/kg oral", "value": "1.65 ± 1.00"},
      {"measurement": "Il6 mRNA expression, kidney", "setting": "[3]; 10 mg/kg oral", "value": "17.94 ± 9.61"},
      {"measurement": "Col1a1 mRNA expression, kidney", "setting": "[4]; 0.1 mg/kg oral", "value": "2.45 ± 0.63"},
      {"measurement": "α-Sma mRNA expression, kidney", "setting": "[4]; 0.1 mg/kg oral", "value": "3.50 ± 1.91"},
      {"measurement": "Col1a1 mRNA expression, kidney", "setting": "[4]; 1 mg/kg oral", "value": "2.25 ± 0.58"},
      {"measurement": "α-Sma mRNA expression, kidney", "setting": "[4]; 1 mg/kg oral", "value": "3.03 ± 0.99"},
      {"measurement": "Col1a1 mRNA expression, kidney", "setting": "[4]; 10 mg/kg oral", "value": "1.93 ± 0.41"},
      {"measurement": "α-Sma mRNA expression, kidney", "setting": "[4]; 10 mg/kg oral", "value": "1.55 ± 0.61"},
      {"measurement": "Havcr1 mRNA expression, kidney", "setting": "[5]; 0.1 mg/kg oral", "value": "117.81 ± 37.55"},
      {"measurement": "Ngal mRNA expression, kidney", "setting": "[5]; 0.1 mg/kg oral", "value": "145.28 ± 50.31"},
      {"measurement": "Havcr1 mRNA expression, kidney", "setting": "[5]; 1 mg/kg oral", "value": "88.33 ± 33.24"},
      {"measurement": "Ngal mRNA expression, kidney", "setting": "[5]; 1 mg/kg oral", "value": "118.82 ± 38.60"},
      {"measurement": "Havcr1 mRNA expression, kidney", "setting": "[5]; 10 mg/kg oral", "value": "93.99 ± 49.52"},
      {"measurement": "Ngal mRNA expression, kidney", "setting": "[5]; 10 mg/kg oral", "value": "104.98 ± 18.55"},
      {"measurement": "Il1 mRNA expression, kidney", "setting": "[6]; 0.1 mg/kg oral", "value": "5.45 ± 2.35"},
      {"measurement": "Il6 mRNA expression, kidney", "setting": "[6]; 0.1 mg/kg oral", "value": "52.89 ± 40.54"},
      {"measurement": "Tnf mRNA expression, kidney", "setting": "[6]; 0.1 mg/kg oral", "value": "4.21 ± 0.82"},
      {"measurement": "Il1 mRNA expression, kidney", "setting": "[6]; 1 mg/kg oral", "value": "3.49 ± 0.93"},
      {"measurement": "Il6 mRNA expression, kidney", "setting": "[6]; 1 mg/kg oral", "value": "32.19 ± 25.90"},
      {"measurement": "Tnf mRNA expression, kidney", "setting": "[6]; 1 mg/kg oral", "value": "3.80 ± 0.40"},
      {"measurement": "Il1 mRNA expression, kidney", "setting": "[6]; 10 mg/kg oral", "value": "3.19 ± 0.85"},
      {"measurement": "Il6 mRNA expression, kidney", "setting": "[6]; 10 mg/kg oral", "value": "31.08 ± 18.80"},
      {"measurement": "Tnf mRNA expression, kidney", "setting": "[6]; 10 mg/kg oral", "value": "3.06 ± 0.47"},
      {"measurement": "Col1a1 mRNA expression, kidney", "setting": "[7]; 0.1 mg/kg oral", "value": "10.58 ± 2.78"},
      {"measurement": "α-Sma mRNA expression, kidney", "setting": "[7]; 0.1 mg/kg oral", "value": "6.33 ± 0.96"},
      {"measurement": "Col1a1 mRNA expression, kidney", "setting": "[7]; 1 mg/kg oral", "value": "11.02 ± 2.81"},
      {"measurement": "α-Sma mRNA expression, kidney", "setting": "[7]; 1 mg/kg oral", "value": "6.01 ± 1.21"},
      {"measurement": "Col1a1 mRNA expression, kidney", "setting": "[7]; 10 mg/kg oral", "value": "9.31 ± 2.28"},
      {"measurement": "α-Sma mRNA expression, kidney", "setting": "[7]; 10 mg/kg oral", "value": "4.86 ± 0.99"},
      {"measurement": "Tumor Inhibition Rate", "setting": "Hepa1-6 cells", "value": 96.22, "unit": "%"},
      {"measurement": "Tumor weight", "setting": "Hepa1-6 cells; solvent 0.92 ± 1.41", "value": "0.03 ± 0.06", "unit": "g"},
      {"measurement": "Spleen MDSCs (%)", "setting": "MDSCs; 40 μmol/kg/day, oral, 2 weeks, spleen, flow cytometry", "value": "24.33 ± 5.02", "unit": "%"},
      {"measurement": "Tumor-associated MDSCs (%)", "setting": "MDSCs; 40 μmol/kg/day, oral, 2 weeks, tumor, flow cytometry", "value": "10.62 ± 6.50", "unit": "%"},
      {"measurement": "proportion of MDSCs in tumor tissues and spleens", "setting": "MDSCs; compared with solvent control, result in words", "value": "significantly reduced"}
    ]}
  ]
}
